# In patent publication US10391079B2, “Methods of diagnosing and treating Alzheimer's disease with S-equol” (Ausio Pharmaceuticals, LLC, priority 2016, dated 2019):
# “Also recorded” adds a separate entry of the source.
# Key:
# [1] = test system: Alzheimer's disease subjects; experiment: Montreal Cognitive Assessment (MoCA) in single-blind S-equol pilot study; format: in vivo, human; conditions: for MoCA Visit 3 (Mean ± SEM): wash-out evaluation, 2 weeks placebo after S-equol; for percent MoCA score change between visit 1 and visit 2: FIG. 1
# Description: Alzheimer's disease subjects were recruited through the University of Kansas Alzheimer's Disease Center (ADC). The ADC maintains a clinical cohort whose routine characterizations include Clinical Dementia Rating (CDR) scale ratings, uniform data set (UDS) cognitive testing, and APOE genotyping. The diagnosis of clinic cohort participants is primarily based on CDR and UDS data, and is determined through a consensus conference that includes subspecialty-trained cognitive neurologists and an expert neuropsychologist. Subjects diagnosed with Alzheimer's disease further meet current criteria for that diagnosis in McKhann et al., Alzheimers Dement, 7 (2011) 263-269.
# To qualify for the study, participants had to be female with very mild (CDR 0.5) or mild (CDR 1) Alzheimer's disease. Each participant was required to have a study partner. As part of the informed consent process, the subjects and study partners were told that during different parts of the study the participants would receive either an S-equol capsule or an inert placebo. The placebo could not be distinguished from the S-equol by sight, touch, or taste so although the investigators knew whether participants at any given point were receiving S-equol or placebo, the participants themselves were blind to the actual treatment. The S-equol and placebo capsule were provided by Ausio Pharmaceuticals, LLC (Cincinnati, Ohio).
# (§1) Subjects received a two week supply of medication, which uniformly consisted of placebo, and were instructed to take the study medication twice a day. At the end of this initial two-week period participants returned to the ADC clinical trials unit for their first study visit (visit 1; lead-in evaluation). Visit 1 procedures included an assessment of study medication compliance, vital signs, a query for perceived side effects, the Montreal Cognitive Assessment (MoCA), and a 40 ml phlebotomy; the blood was used to measure platelet mitochondria cytochrome oxidase (COX) and citrate synthase (CS) activities. At the completion of this visit the next two weeks of study medication was dispensed, which uniformly consisted of 10 mg S-equol capsule.
# (§2) At the end of this second two-week period participants returned to the ADC clinical trials unit for their second study visit (visit 2; active treatment evaluation). The same procedures were performed during the lead-in evaluation and dispensed the next two weeks of study medication, which at this point uniformly consisted of placebo.
# (§3) At the end of this final two-week period the participants returned to the ADC clinical trials unit for their third study visit (visit 3; wash-out evaluation). The lead-in and active treatment evaluation procedures were performed again, which completed participation in this single-blind study.
# (§4) Secondary outcomes included a safety analysis of the S-equol 10 mg twice per day dose and an analysis of MoCA scores.
# [2] = test system: platelet mitochondria cytochrome oxidase (COX); experiment: Platelet mitochondria COX activity referenced to CS activity (COX/CS) in S-equol pilot study; format: in vivo, human; conditions: for COX/CS Visit 3 (Mean ± SEM): wash-out, 2 weeks placebo after S-equol
# Description: as §1, §2, §3
# Forty milliliter blood samples were collected in tubes containing acid-citrate-dextrose (ACD) tubes as an anticoagulant, and maintained at room temperature. Within 24 hours of phlebotomy the blood was processed by the ADC Mitochondrial Genomics and Metabolism Core. To initiate the processing procedure, platelets were isolated by centrifugation and enriched mitochondrial fractions prepared using previously described methods. Such procedures involved nitrogen cavitation to rupture platelets followed by centrifugation to collect mitochondria.
# The protein concentrations of the enriched mitochondrial fractions were measured using a BCA protein assay kit (BioRad, Hercules, Calif.). COX Vmax activity was determined as a pseudo first order-rate constant (sec-1/mg) by measuring the oxidation of reduced cytochrome c at 550 nm.
# In addition to measuring COX activity, each sample's citrate synthase (CS) Vmax activity (nmol/min/mg) was measured. This assay was performed spectrophotometrically by following the formation of 5-thio-2-nitrobenzoate (412 nm) following the addition of 100 μM oxaloacetate at 30° C. In addition to referencing COX activities to total protein, potential inter-sample differences in mitochondrial mass was corrected by referencing the COX activity for each sample to its corresponding CS activity.
# An S-equol-associated modification of platelet mitochondria COX activity was designated as the primary outcome measure. To determine whether an S-equol-associated change in platelet mitochondrial COX activity occurred for an individual participant, an anticipated pattern of response analysis was used. It was expected that platelet mitochondria COX activity would increase in response to the active treatment.
# Participants were identified as responding (i.e., increasing COX activity in response to treatment, classified as “successes” or “responders”) if the individual change (slope) from the lead-in measurement to the active treatment measurement was greater than the change (slope) from the active-treatment measurement to the wash-out (visit 3) measurement.
# [3] = test system: Alzheimer's disease patients; experiment: Safety analysis of S-equol 10 mg twice per day; format: in vivo, human; conditions: S-equol 10 mg twice per day for two weeks
# Description: as §1, §4
# cytochrome oxidase (COX) = conditions: brains from ovariectomized mice; cited from earlier work
compound,measurement,setting,value
Oc1ccc([C@H]2COc3cc(O)ccc3C2)cc1 [S-equol],MoCA Visit 3 (Mean ± SEM),"[1]; APOE4 carriers, 8 participants",15.9 ± 2.7
same,percent MoCA score change between visit 1 and visit 2,[1]; APOE4 carriers,trended in a downward direction
same,MoCA Visit 3 (Mean ± SEM),"[1]; APOE4 non-carriers, 7 participants",12.4 ± 1.6
same,percent MoCA score change between visit 1 and visit 2,[1]; APOE4 non-carriers,in an upward direction
same,MoCA Visit 3 (Mean ± SEM),"[1]; Total, 15 participants",14.3 ± 1.6
same,"differences in mean MoCA scores between visits, or between APOE4 carriers and non-carriers",[1]; visits 1-3,No significant differences were observed
same,COX/CS Visit 3 (Mean ± SEM),"[2]; APOE4 carriers, 8 participants",4.4e-05
same,COX/CS Visit 3 (Mean ± SEM),"[2]; APOE4 non-carriers, outlier excluded, 6 participants",4.1e-05
same,COX/CS Visit 3 (Mean ± SEM),"[2]; APOE4 non-carriers, outlier included, 7 participants",5.1E−05 ± 1.1E−05
same,COX/CS Visit 3 (Mean ± SEM),"[2]; Total, outlier excluded, 14 participants",4.2e-05
same,COX/CS Visit 3 (Mean ± SEM),"[2]; Total, outlier included, 15 participants",4.7e-05
same,percent COX/CS change between visit 1 and visit 2,"[2]; non-APOE4 carriers versus APOE4 carriers, FIG. 3",trended higher in the non-APOE4 carriers than it did in the APOE4 carriers
same,"differences in mean COX/CS values between visits, or between APOE4 carriers and non-carriers",[2]; visits 1-3,No significant differences were observed
same,adverse events,[3],No treatment-related adverse events (either serious or non-serious) were observed; also recorded: No adverse events occurred
same,COX1 protein levels,cytochrome oxidase (COX),increase
same,cytochrome oxidase (COX) activity,cytochrome oxidase (COX),increase
